Measurements as given in ChEMBL document CHEMBL4007472, “Identification of novel TACE inhibitors compatible with topical application” (Bioorg Med Chem Lett, 2017).
pIC50: −log10 of the molar value.

How the values were obtained:
[1] = target: Disintegrin and metalloproteinase domain-containing protein 17 (Mus musculus, UniProt Q9Z0F8); test: Inhibition of TACE in mouse RAW264.7 cells assessed as inhibition of LPS-stimulated TNFalpha production pretreated for 1 hr followed by LPS stimulation for 4 hrs by ELISA; assay type: cell-based; details: read-out: IC50
Chain of Disintegrin and metalloproteinase domain-containing protein 17 (Mus musculus, UniProt Q9Z0F8) (Q9Z0F8 whole entry, the tested form may be a part): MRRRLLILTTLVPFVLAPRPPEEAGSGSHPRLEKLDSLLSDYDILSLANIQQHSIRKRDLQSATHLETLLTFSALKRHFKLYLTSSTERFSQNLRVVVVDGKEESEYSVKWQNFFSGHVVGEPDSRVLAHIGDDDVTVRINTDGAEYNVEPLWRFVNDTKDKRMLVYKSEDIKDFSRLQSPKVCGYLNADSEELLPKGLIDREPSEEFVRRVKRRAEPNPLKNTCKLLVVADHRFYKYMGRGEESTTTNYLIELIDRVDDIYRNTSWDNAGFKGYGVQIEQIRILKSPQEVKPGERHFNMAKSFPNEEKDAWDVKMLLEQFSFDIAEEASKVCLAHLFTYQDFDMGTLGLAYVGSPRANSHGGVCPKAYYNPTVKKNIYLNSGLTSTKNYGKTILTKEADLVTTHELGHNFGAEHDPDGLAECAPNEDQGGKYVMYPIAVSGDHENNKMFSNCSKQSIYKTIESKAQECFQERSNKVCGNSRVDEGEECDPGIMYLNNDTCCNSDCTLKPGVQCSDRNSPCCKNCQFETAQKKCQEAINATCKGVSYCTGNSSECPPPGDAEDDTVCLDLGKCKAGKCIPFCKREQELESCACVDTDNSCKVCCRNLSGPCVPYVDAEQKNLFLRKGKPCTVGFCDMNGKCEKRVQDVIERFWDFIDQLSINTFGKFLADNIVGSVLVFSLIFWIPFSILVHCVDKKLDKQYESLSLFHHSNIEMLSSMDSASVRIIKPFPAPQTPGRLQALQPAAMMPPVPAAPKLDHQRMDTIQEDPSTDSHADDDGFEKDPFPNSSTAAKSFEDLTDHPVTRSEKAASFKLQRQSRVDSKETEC

[2] = target: T1, Disintegrin and metalloproteinase domain-containing protein 17 (Homo sapiens, UniProt P78536); test: Inhibition of recombinant TACE catalytic domain (unknown origin) using Abz-LAQAVRSSSR-Dpa as substrate preincubated for 10 mins followed by substrate addition measured after 10 mins by FRET assay; details: for IC50: read-out: pIC50 (converted); for pIC50: read-out: IC50
T1 sequence (P78536 whole entry, the tested form may be a part): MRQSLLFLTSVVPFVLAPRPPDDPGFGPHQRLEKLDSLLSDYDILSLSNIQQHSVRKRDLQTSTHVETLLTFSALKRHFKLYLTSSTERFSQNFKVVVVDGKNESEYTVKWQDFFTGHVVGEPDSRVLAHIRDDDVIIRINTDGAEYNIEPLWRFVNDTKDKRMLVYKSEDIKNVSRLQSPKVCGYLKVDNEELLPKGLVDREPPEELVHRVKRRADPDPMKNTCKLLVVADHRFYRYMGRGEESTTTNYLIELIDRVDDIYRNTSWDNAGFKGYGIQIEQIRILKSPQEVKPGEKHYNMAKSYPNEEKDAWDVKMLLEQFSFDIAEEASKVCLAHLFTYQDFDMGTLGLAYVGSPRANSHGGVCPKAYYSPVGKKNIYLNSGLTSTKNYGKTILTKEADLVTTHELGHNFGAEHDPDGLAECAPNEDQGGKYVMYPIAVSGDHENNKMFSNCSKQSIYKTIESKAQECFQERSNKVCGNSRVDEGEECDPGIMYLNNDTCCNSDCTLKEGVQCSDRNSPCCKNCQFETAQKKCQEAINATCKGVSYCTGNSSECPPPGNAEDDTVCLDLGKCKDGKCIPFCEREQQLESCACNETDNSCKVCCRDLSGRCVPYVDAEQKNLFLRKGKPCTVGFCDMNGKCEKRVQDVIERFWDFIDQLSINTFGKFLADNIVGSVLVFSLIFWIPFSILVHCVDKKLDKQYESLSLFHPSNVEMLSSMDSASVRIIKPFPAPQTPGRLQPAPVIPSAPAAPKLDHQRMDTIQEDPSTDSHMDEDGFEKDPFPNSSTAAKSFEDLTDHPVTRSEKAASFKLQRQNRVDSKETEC

[3] = target: T1, Disintegrin and metalloproteinase domain-containing protein 17; test: Inhibition of recombinant human TACE catalytic domain using Mca-Pro-Leu-Ala-Gln-Ala-Val-Dpa-Arg-Ser-Ser-Ser-Arg-NH2 as substrate after 2 hrs by fluorescence assay

Row | SMILES | pIC50 [1] | IC50 [2] | pIC50 [3] | pIC50 [2]
1 | Cc1cc(COc2ccc(S(=O)(=O)N[C@@H]3CCN(C(C)C)C[C@]3(C)C(=O)NO)cc2)c2ccccc2n1 | 6.00 | 200 nM | – | –
2 | Cc1cc(COc2ccc(S(=O)(=O)N3CCC(CC(C)C)(C(=O)NO)C3)cc2)c2ccccc2n1 (stereo not drawn) | – | – | 7.46 | –
3 | Cc1cc(COc2ccc(S(=O)(=O)N[C@@H]3CCC[C@]3(C)C(=O)NO)cc2)c2ccccc2n1 | 6.57 | – | – | 9.22
4 | Cc1cc(COc2ccc(S(=O)(=O)N(C)[C@H]3[C@@H](C(=O)NO)[C@@H]4CC[C@H]3O4)cc2)c2ccccc2n1 | 8.00 | 1 nM | – | –
5 | Cc1cc(COc2ccc(S(=O)(=O)N[C@@H]3CN(C(=O)NC(C)(C)C)CC[C@@H]3C(=O)NO)cc2)c2ccccc2n1 | 7.24 | 1.26 nM | – | –
6 | Cc1cc(COc2ccc(S(=O)(=O)N[C@@H]3CCC[C@]3(O)C(=O)NO)cc2)c2ccccc2n1 | 7.09 | – | – | –
7 | Cc1cc(COc2ccc(S(=O)(=O)N[C@@H]3CCOC[C@]3(C)C(=O)NO)cc2)c2ccccc2n1 | 5.78 | – | – | –
8 | Cc1cc(COc2ccc(S(=O)(=O)N3CCC(Cc4ccccc4)(C(=O)NO)C3)cc2)c2ccccc2n1 (stereo not drawn) | – | – | 7.38 | –
9 | Cc1cc(COc2ccc(S(=O)(=O)N[C@@H]3CCC[C@]3(F)C(=O)NO)cc2)c2ccccc2n1 | 7.72 | – | – | 9.22
10 | Cc1cc(COc2ccc(S(=O)(=O)N(C)[C@@H]3CCC[C@]3(CO)C(=O)NO)cc2)c2ccccc2n1 | 6.36 | – | – | 9.22
11 | Cc1cc(COc2ccc(S(=O)(=O)NC3CCN(CCO)CC3C(=O)NO)cc2)c2ccccc2n1 (stereo not drawn) | 6.74 | 3.16 nM | – | –
12 | CC[C@]1(C(=O)NO)CCC[C@H]1NS(=O)(=O)c1ccc(OCc2cc(C)nc3ccccc23)cc1 | 6.00 | 2.51 nM | – | –
13 | Cc1cc(COc2ccc(S(=O)(=O)N[C@@H]3CCN(C=O)C[C@]3(O)C(=O)NO)cc2)c2ccccc2n1 | 6.80 | 1.26 nM | – | –
14 | CCC1(C(=O)NO)CCN(S(=O)(=O)c2ccc(OCc3cc(C)nc4ccccc34)cc2)C1 (stereo not drawn) | – | – | 7.80 | –
15 | C#CCN1CC[C@@H](NS(=O)(=O)c2ccc(OCc3cc(C)nc4ccccc34)cc2)[C@@](C)(C(=O)NO)C1 | 6.00 | 20 nM | – | –
16 | CC#CCOc1ccc(C(=O)N2CCC(C(=O)NO)C2)cc1 (stereo not drawn) | – | – | < 5.00 | –

Row | SMILES | pIC50 [1] | IC50 [2] | pIC50 [3] | pIC50 [2]
17 | Cc1cc(COc2ccc(S(=O)(=O)N[C@@H]3CCN(S(=O)(=O)C(C)C)C[C@]3(C)C(=O)NO)cc2)c2ccccc2n1 | 6.12 | 2.51 nM | – | –
18 | Cc1cc(COc2ccc(S(=O)(=O)N[C@@H]3CCN(C(=O)OC(C)(C)C)C[C@@H]3C(=O)NO)cc2)c2ccccc2n1 | 6.34 | – | – | 9.30
19 | Cc1cc(COc2ccc(S(=O)(=O)N[C@@H]3[C@H]4CC[C@H](C4)[C@@H]3C(=O)NO)cc2)c2ccccc2n1 | 7.74 | – | – | 9.22
20 | CC#CCOc1ccc(S(=O)(=O)N2CCC(C(=O)NO)C2)cc1 (stereo not drawn) | – | – | < 5.00 | –
21 | Cc1cc(COc2ccc(S(=O)(=O)N[C@@H]3CCNC[C@]3(O)C(=O)NO)cc2)c2ccccc2n1 | 6.00 | 100 nM | – | –
22 | CC[C@]1(C(=O)NO)CCC[C@H]1N(C)S(=O)(=O)c1ccc(OCc2cc(C)nc3ccccc23)cc1 | 6.00 | 10 nM | – | –
23 | Cc1cc(COc2ccc(S(=O)(=O)N[C@@H]3CN(C(=O)OC(C)(C)C)CC[C@H]3C(=O)NO)cc2)c2ccccc2n1 | 7.24 | – | – | 9.15
24 | Cc1cc(COc2ccc(S(=O)(=O)N[C@@H]3CCOC[C@@]3(C)C(=O)NO)cc2)c2ccccc2n1 | 5.72 | 6.31 nM | – | –
25 | CNC(=O)N1CC[C@@H](NS(=O)(=O)c2ccc(OCc3cc(C)nc4ccccc34)cc2)[C@@](C)(C(=O)NO)C1 | 6.00 | 3.98 nM | – | –
26 | Cc1cc(COc2ccc(S(=O)(=O)N[C@@H]3CCN(C=O)C[C@]3(C)C(=O)NO)cc2)c2ccccc2n1 | 6.00 | – | – | 9.22
27 | Cc1cc(COc2ccc(S(=O)(=O)N[C@@H]3COC[C@@H]3C(=O)NO)cc2)c2ccccc2n1 | 7.92 | 0.631 nM | – | –
28 | Cc1cc(COc2ccc(S(=O)(=O)N(C)[C@@H]3CC=CC[C@@H]3C(=O)NO)cc2)c2ccccc2n1 (relative stereo) | 6.00 | – | – | –
29 | Cc1cc(COc2ccc(S(=O)(=O)N(C)[C@@H]3CCOC[C@@H]3C(=O)NO)cc2)c2ccccc2n1 (relative stereo) | 6.00 | – | – | –
30 | C#CCN1C[C@H](C(=O)NO)[C@H](NS(=O)(=O)c2ccc(OCc3cc(C)nc4ccccc34)cc2)C1 (relative stereo) | 7.05 | – | – | –
31 | Cc1cc(COc2ccc(S(=O)(=O)N[C@@H]3CCOC[C@@H]3C(=O)NO)cc2)c2ccccc2n1 (relative stereo) | 7.77 | – | – | –

Further lines, results first:

Row | pIC50 [1] | IC50 [2] | pIC50 [3] | pIC50 [2] | SMILES
32 | 6.00 | 6.31 nM | – | – | CC(=O)N1CC[C@@H](NS(=O)(=O)c2ccc(OCc3cc(C)nc4ccccc34)cc2)[C@@](C)(C(=O)NO)C1
33 | – | – | 7.15 | – | Cc1cc(COc2ccc(S(=O)(=O)N3CCCOC(C(=O)NO)C3)cc2)c2ccccc2n1 (stereo not drawn)
34 | 8.15 | – | – | – | Cc1cc(COc2ccc(S(=O)(=O)N[C@@H]3CCN(C=O)C[C@@H]3C(=O)NO)cc2)c2ccccc2n1
35 | – | – | 5.44 | – | CC(=O)N1C[C@H](S(=O)(=O)c2ccc(OCc3cc(C)nc4c3CCCC4)cc2)C[C@H]1C(=O)NO
36 | – | – | < 5.00 | – | CC#CCOc1ccc(S(=O)(=O)[C@H]2C[C@H](C(=O)NO)N(C(C)=O)C2)cc1
37 | – | – | 6.70 | – | CC(=O)N1CCCN(S(=O)(=O)c2ccc(OCc3cc(C)nc4ccccc34)cc2)CC1C(=O)NO (stereo not drawn)
38 | 7.70 | 1 nM | – | – | CC(=O)N1CCC(NS(=O)(=O)c2ccc(OCc3cc(C)nc4ccccc34)cc2)C(C(=O)NO)C1 (stereo not drawn)
39 | 6.69 | 1.26 nM | – | – | CC(=O)N1CCC(C(=O)NO)C(NS(=O)(=O)c2ccc(OCc3cc(C)nc4ccccc34)cc2)C1 (stereo not drawn)
40 | 7.68 | – | – | – | Cc1cc(COc2ccc(S(=O)(=O)N[C@@H]3CN(C=O)CCC3C(=O)NO)cc2)c2ccccc2n1 (stereo partly drawn)
41 | – | – | 5.82 | – | CC#CCOc1ccc(S(=O)(=O)N2CCN(C(C)=O)C(C(=O)NO)C2)cc1 (stereo not drawn)
42 | – | – | < 5.00 | – | CC#CCOc1ccc(S(=O)(=O)[C@@H]2C[C@H](C(=O)NO)N(C(C)=O)C2)cc1
43 | 7.28 | 1 nM | – | – | Cc1cc(COc2ccc(S(=O)(=O)N(C)[C@@H]3[C@@H]4CC[C@@H](C4)[C@@H]3C(=O)NO)cc2)c2ccccc2n1
44 | – | – | 6.74 | – | Cc1cc(COc2ccc(S(=O)(=O)N3CCOC(C(=O)NO)C3)cc2)c2ccccc2n1 (stereo not drawn)
45 | – | – | 5.00 | – | CC#CCOc1ccc(S(=O)(=O)[C@@H]2C[C@@H](C(=O)NO)N(C(C)=O)C2)cc1
46 | – | – | 7.52 | – | CC(=O)N1CCN(S(=O)(=O)c2ccc(OCc3cc(C)nc4c3CCCC4)cc2)CC1(C)C(=O)NO (stereo not drawn)
47 | – | – | 6.12 | – | CC(=O)N1CCN(C(=O)c2ccc(OCc3cc(C)nc4c3CCCC4)cc2)CC1C(=O)NO (stereo not drawn)
48 | – | – | < 5.00 | – | CC#CCOc1ccc(S(=O)(=O)[C@H]2C[C@@H](C(=O)NO)N(C(C)=O)C2)cc1
49 | – | – | < 5.00 | – | CC(=O)N1C[C@@H](S(=O)(=O)c2ccc(OCc3cc(C)nc4c3CCCC4)cc2)C[C@@H]1C(=O)NO
50 | – | – | 7.40 | – | Cc1cc(COc2ccc(S(=O)(=O)N3CCCC(C)(C(=O)NO)C3)cc2)c2c(n1)CCCC2 (stereo not drawn)
51 | – | – | 6.96 | – | Cc1cc(COc2ccc(S(=O)(=O)N3CCNC(C(=O)NO)C3)cc2)c2c(n1)CCCC2 (stereo not drawn)
52 | – | – | 5.19 | – | Cc1cc(COc2ccc(C(=O)N3CCC(C(=O)NO)C3)cc2)c2c(n1)CCCC2 (stereo not drawn)
53 | – | – | < 5.00 | – | CC(=O)N1C[C@H](S(=O)(=O)c2ccc(OCc3cc(C)nc4c3CCCC4)cc2)C[C@@H]1C(=O)NO
54 | 7.70 | – | – | – | Cc1cc(COc2ccc(S(=O)(=O)N[C@@H]3CN(C=O)C[C@@H]3C(=O)NO)cc2)c2ccccc2n1 (relative stereo)
